# In publication PMC11510805, “In Vivo Effects of a GHR Synthesis Inhibitor During Prolonged Treatment in Dogs” (Pharmaceuticals, 2024):
# Columns and labels:
# CYP2C8 = target: T1, CYP2C8 (Homo sapiens, UniProt P10632); settings: human liver microsomes
# T1 sequence (P10632 1-490): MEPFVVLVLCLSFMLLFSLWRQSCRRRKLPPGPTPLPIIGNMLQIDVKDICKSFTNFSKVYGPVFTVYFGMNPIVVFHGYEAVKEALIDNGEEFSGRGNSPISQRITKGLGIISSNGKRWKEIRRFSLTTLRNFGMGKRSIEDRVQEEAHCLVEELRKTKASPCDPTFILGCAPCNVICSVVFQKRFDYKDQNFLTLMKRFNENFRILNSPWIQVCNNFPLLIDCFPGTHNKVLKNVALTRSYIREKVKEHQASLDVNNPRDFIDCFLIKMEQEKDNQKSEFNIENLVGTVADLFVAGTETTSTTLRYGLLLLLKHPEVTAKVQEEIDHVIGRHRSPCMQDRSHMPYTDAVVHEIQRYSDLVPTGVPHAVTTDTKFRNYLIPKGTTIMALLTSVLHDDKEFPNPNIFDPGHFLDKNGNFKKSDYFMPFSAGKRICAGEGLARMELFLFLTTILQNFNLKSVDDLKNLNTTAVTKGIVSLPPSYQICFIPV
# Text: For in vitro experiments, a stock solution of C#1 in DMSO was chosen.
# CYP2C19 = CYP2C19 (Homo sapiens, UniProt P33261); settings: human liver microsomes
# Chain of CYP2C19 (P33261 whole entry): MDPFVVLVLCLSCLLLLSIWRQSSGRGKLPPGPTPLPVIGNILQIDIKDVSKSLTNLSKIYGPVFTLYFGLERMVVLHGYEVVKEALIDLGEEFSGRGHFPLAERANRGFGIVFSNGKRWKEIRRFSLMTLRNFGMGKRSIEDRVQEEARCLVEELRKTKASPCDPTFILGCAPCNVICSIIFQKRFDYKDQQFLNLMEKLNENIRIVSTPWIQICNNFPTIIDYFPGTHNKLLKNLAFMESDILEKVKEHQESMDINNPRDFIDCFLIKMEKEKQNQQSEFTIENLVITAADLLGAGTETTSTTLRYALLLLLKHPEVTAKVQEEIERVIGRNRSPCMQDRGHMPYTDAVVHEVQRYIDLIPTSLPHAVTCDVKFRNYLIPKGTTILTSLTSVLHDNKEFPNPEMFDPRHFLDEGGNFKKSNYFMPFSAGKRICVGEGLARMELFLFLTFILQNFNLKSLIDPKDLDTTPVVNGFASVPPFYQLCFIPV
Structure (SMILES),CYP2C8 Imax of reference inhibitor (CYP2C8) [%],CYP2C19 Imax of reference inhibitor (CYP2C19) [%]
O=c1c(O)c(-c2ccc(O)c(O)c2)oc2cc(O)cc(O)c12 [Quercetin],88,–
C=C(C)[C@@H]1CCC2=CC(=O)C[C@@H](C)[C@]2(C)C1 [Nootkatone],–,87
